Test results from patent publication US20070082066A1, “Use of zeaxanthin to reduce light hyper-sensitivity, photophobia, and medical conditions relating to light hyper-sensitivity” (priority 2003, published 2007).

Experiments:
Type in all cases: in vivo, human
sunburns = experiment: Summertime exposure to direct sunlight, sunburn protection; conditions: oral, about 30 to about 80 mg/day, summer of 2002, direct sunlight
Description: Instead, this discovery arose out of observations that were made while zeaxanthin was being tried and evaluated by a number of people, to determine whether it could help protect the skin against sunburns. Because of various factors and events described in a separate patent application (Ser. No. 10/356,134, Gierhart et al; the contents of that application are incorporated herein by reference, as though fully set forth herein), the founder of ZeaVision (who is also one of the Inventors herein) became convinced that relatively high dosages of zeaxanthin, in the range of about 30 mg or greater per day, could increase the skin's ability to withstand direct sunlight without suffering a sunburn. Accordingly, several coworkers began taking zeaxanthin at dosages in a range of about 30 to about 80 mg/day, during the summer of 2002, to provide additional evaluation of the earliest results that had been seen.
(§1) Therefore, a patent application entitled “Protection Against Sunburn and Skin Problems with Orally-Ingested High-Dosage Zeaxanthin”, was drafted and filed in the autumn of 2002, as a provisional application, based on anecdotal evidence from several people. […] After those test data became available, the provisional patent application on sunburn prevention was expanded into a utility application.

[1] = system: migraine or other severe headaches; experiment: Customer reports on frequency of migraine or other severe headaches; conditions: a number of customers with migraine or recurrent headaches; zeaxanthin at 10 mg or more per day
light hyper-sensitivity = experiment: Customer and user reports on light hyper-sensitivity after taking zeaxanthin
Description: When asked about it by the Applicants herein, they offered answers that were usually along the lines of, “I hadn't noticed that. But yeah, you're right. I haven't been wearing my sunglasses as much as I used to. I just don't feel like I need them as much, or as often.”
At roughly the same time, the customer service specialist at ZeaVision also began to receive sporadic comments from people who had purchased zeaxanthin capsules to treat or prevent macular degeneration.
These discoveries led the customer support staff at ZeaVision to begin routinely asking customers about light hyper-sensitivity, if they called in and wanted to discuss the visual improvements they were enjoying after they began taking zeaxanthin.

skin = experiment: Indoor tests with medical-grade ultraviolet lamp, before-and-after minimal erythemal dosages; conditions: high-dosage zeaxanthin, winter season
Description: as §1

[2] = Safety and tolerability in users taking zeaxanthin for macular degeneration; conditions: 20 mg/day, thousands of users over the past few years
Description: If no results are noticed at that level within about 2 to 4 weeks, the person can try a somewhat higher dosage during the next 2-4 weeks.

**Q.** Which risk of sunburns (sunburns) does the source give for `CC1=C(/C=C/C(C)=C/C=C/C(C)=C/C=C/C=C(C)/C=C/C=C(C)/C=C/C2=C(C)C[C@@H](O)CC2(C)C)C(C)(C)C[C@H](O)C1` [zeaxanthin] here?
**A.** can indeed reduce the risk of sunburns

**Q.** What about the “frequency of migraine or other severe headaches” value [1] of the same compound?
**A.** didn't seem to be having as many migraine or other severe headaches

**Q.** And the “light hyper-sensitivity, volunteered consumer comments” value (light hyper-sensitivity; consumers who purchased zeaxanthin capsules to treat or prevent macular degeneration, after vs before taking)?
**A.** suffering less from light hyper-sensitivity

**Q.** What about the “use of sunglasses when driving or outdoors” value (light hyper-sensitivity; high-dosage zeaxanthin, several people working with ZeaVision, family members and friends, spring of 2003) of the same compound?
**A.** had stopped using their sunglasses so much

**Q.** And the “unusual and unpleasant levels of light sensitivity, routine customer questioning” value (light hyper-sensitivity; nearly all of the roughly 30% of customers who reported light sensitivity, after they began taking zeaxanthin capsules)?
**A.** less severe and less troubling

**Q.** What about the “light sensitivity evaluated separately from vision clarity” value (light hyper-sensitivity; nearly all patients who had reported increased light sensitivity, zeaxanthin at 10 mg or more per day) of the same compound?
**A.** improved, significantly

**Q.** What about the “skin-protective effects (minimal erythemal dosages before and after)” value (skin) of the same compound?
**A.** strongly confirmed the skin-protective effects

**Q.** And the safety and tolerability [2]?
**A.** safe and well-tolerated
